{"source": "patent US9604925B2", "about": "“Class II HMG-CoA reductase inhibitors and methods of use” (Purdue Research Foundation, priority 2012, dated 2017)", "key": {"[1]": {"tested_on": "vancomycin resistant Enterococcus faecalis (VRE) ATCC 51299", "assay": "MIC/MBC micro dilution against VRE", "conditions": "VRE ATCC 51299, MHB, 20 hours"}, "[2]": {"tested_on": "methicillin-resistant Staphylococcus aureus (MRSA) ATCC 43300", "assay": "MIC/MBC micro dilution against MRSA", "conditions": "for MBC, μM: MRSA, Table 1; for MRSA MBC: MRSA ATCC 43300, MHB, 20 hours, Table 2; for MBC / MIC: Staphylococcus aureus"}, "S. aureus HMGR": {"target": "S. aureus HMGR (Staphylococcus aureus, UniProt Q9FD86)", "sequence (Q9FD86 entry or part of it)": "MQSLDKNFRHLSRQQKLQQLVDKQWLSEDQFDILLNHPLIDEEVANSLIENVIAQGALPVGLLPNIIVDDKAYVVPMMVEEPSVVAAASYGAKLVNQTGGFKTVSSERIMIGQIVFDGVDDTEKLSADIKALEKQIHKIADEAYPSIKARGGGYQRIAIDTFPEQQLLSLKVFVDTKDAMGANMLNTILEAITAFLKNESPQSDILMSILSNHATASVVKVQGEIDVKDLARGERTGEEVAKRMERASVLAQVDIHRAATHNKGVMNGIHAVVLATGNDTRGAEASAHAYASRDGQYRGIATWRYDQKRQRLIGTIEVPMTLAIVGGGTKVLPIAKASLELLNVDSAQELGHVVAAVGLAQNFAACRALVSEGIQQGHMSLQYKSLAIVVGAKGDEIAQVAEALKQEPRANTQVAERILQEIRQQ", "assay": "biochemical"}, "[3]": {"tested_on": "Staphylococcus aureus ATCC 6538 planktonic organisms (not in biofilm)", "assay": "MIC/MBC against planktonic S. aureus ATCC 6538", "type": "cell-based"}, "[4]": {"tested_on": "Staphylococcus aureus ATCC 6538 adherent organisms (biofilm)", "assay": "MIC/MBC in adherent-cell biofilm of S. aureus ATCC 6538", "type": "cell-based", "conditions": "for Adherent organisms (biofilm) MIC^b: S. aureus ATCC 6538, 20 h; for Adherent organisms (biofilm) MBC^b: S. aureus ATCC 6538, regrowth 20 h in antibiotic-free MHB", "description": "An adherent biofilm for susceptibility testing was formed using a clinical isolate of Staphylococcus aureus (ATCC 6538). S. aureus biofilms were prepared in a tissue culture non-treated polystyrene 96-well plate (Corning) and washed with phosphate-buffered saline (PBS) to remove unbound bacteria. Subsequently, serial twofold dilutions of the compounds in MHB were added to wells containing adherent organisms. The polystyrene plates were incubated for 20 h at 37° C. The MIC was taken as the lowest drug concentration at which observable growth was inhibited."}, "[5]": {"tested_on": "C. elegans infected with VRE", "assay": "Treatment of C. elegans infected with VRE", "conditions": "VRE-infected worms, 100 μM"}}, "note": "Marks after values point to notes of the source that are not given here."}
{"smiles": "CC(C)(C)CCc1ccc(NS(=O)(=O)c2ccc(O)c(C(=O)O)c2)cc1", "note": "[Compound 2k, 5-[N-(4-(3,3-dimethylbutyl)phenyl)sulfamoyl]-2-hydroxybenzoic acid]", "values": [{"measurement": "VRE MBC", "setting": "[1]", "result": "128/128"}, {"measurement": "MBC, μM", "setting": "[2]", "result": "failed to exhibit any activity"}]}
{"smiles": "CCCCCCCCCCCCCCc1ccc(NS(=O)(=O)c2ccc(O)c(C(=O)O)c2)cc1", "note": "[Compound 2h, 2-hydroxy-5-[N-(4-tetradecylphenyl)sulfamoyl]benzoic acid]", "values": [{"measurement": "IC50", "setting": "S. aureus HMGR", "result": 1.9, "unit": "µM"}, {"measurement": "improvement of IC50 over lead compound 1", "setting": "S. aureus HMGR", "result": 45, "unit": "fold"}, {"measurement": "MBC, μM", "setting": "[2]", "result": "lost bactericidal activity"}]}
{"smiles": "CCc1ccc(NS(=O)(=O)c2ccc(O)c(C(=O)O)c2)cc1", "note": "[Compound 2a, 5-[N-(4-ethylphenyl)sulfamoyl]-2-hydroxybenzoic acid]", "values": [{"measurement": "IC50, μM", "setting": "S. aureus HMGR", "result": "^d (No significant inhibition of HMGR activity was observed at the concentrations tested.)"}]}
{"smiles": "CCCCCCc1ccc(NS(=O)(=O)c2ccc(O)c(C(=O)O)c2)cc1", "note": "[Compound 2d, 5-[N-(4-hexylphenyl)sulfamoyl]-2-hydroxybenzoic acid]", "values": [{"measurement": "IC50", "setting": "S. aureus HMGR", "result": "77 ± 6", "unit": "µM"}, {"measurement": "Planktonic organisms (not in biofilm) MBC", "setting": "[3]", "result": 128, "unit": "µM"}, {"measurement": "Planktonic organisms (not in biofilm) MIC", "setting": "[3]", "result": 128, "unit": "µM"}, {"measurement": "Adherent organisms (biofilm) MIC^b", "setting": "[4]", "result": 128, "unit": "µM"}, {"measurement": "Adherent organisms (biofilm) MBC^b", "setting": "[4]", "result": ">128", "unit": "µM"}, {"measurement": "MRSA MBC", "setting": "[2]", "result": "128/128"}, {"measurement": "MBC", "setting": "[2]", "result": 128, "unit": "µM"}, {"measurement": "MIC", "setting": "[2]", "result": 128, "unit": "µM"}]}
{"smiles": "CCCCc1ccc(NS(=O)(=O)c2ccc(OCC(N)=O)c(C(=O)O)c2)cc1", "note": "[Compound 3, 5-[N-(4-butylphenyl)sulfamoyl]-2-(carbamoylmethoxy)benzoic acid]", "values": [{"measurement": "MBC, μM", "setting": "[2]", "result": "failed to show any enzymatic inhibition or bactericidal activity"}]}
{"smiles": "CCCc1ccc(NS(=O)(=O)c2ccc(O)c(C(=O)O)c2)cc1", "note": "[Compound 2b, 2-hydroxy-5-[N-(4-propylphenyl)sulfamoyl]benzoic acid]", "values": [{"measurement": "IC50, μM", "setting": "S. aureus HMGR", "result": "^d (No significant inhibition of HMGR activity was observed at the concentrations tested.)"}]}
{"smiles": "CCCCCc1ccc(NS(=O)(=O)c2ccc(O)c(C(=O)O)c2)cc1", "note": "[Compound 2c, 2-hydroxy-5-[N-(4-pentylphenyl)sulfamoyl]benzoic acid]", "values": [{"measurement": "IC50", "setting": "S. aureus HMGR", "result": "98 ± 3", "unit": "µM"}]}
{"smiles": "CC(=O)NC[C@H]1CN(c2ccc(N3CCOCC3)c(F)c2)C(=O)O1", "note": "[Linezolid, linezolid, reference compound]", "values": [{"measurement": "Adherent organisms (biofilm) MIC^b", "setting": "[4]", "result": 4, "unit": "µM"}, {"measurement": "Adherent organisms (biofilm) MBC^b", "setting": "[4]", "result": 16, "unit": "µM"}, {"measurement": "Log CFU/worm", "setting": "[5]; 16 hours treatment", "result": "1.47 ± 0.06", "unit": "Log CFU/worm"}, {"measurement": "Log Reduction", "setting": "[5]; versus DMSO control", "result": "3.43*"}]}
{"smiles": "CCCCCCCCCCCCc1ccc(NS(=O)(=O)c2ccc(O)c(C(=O)O)c2)cc1", "note": "[Compound 2g, 5-[N-(4-dodecylphenyl)sulfamoyl]-2-hydroxybenzoic acid]", "values": [{"measurement": "IC50", "setting": "S. aureus HMGR", "result": "5.9 ± 0.5", "unit": "µM"}, {"measurement": "VRE MBC", "setting": "[1]", "result": "128/128"}, {"measurement": "MRSA MBC", "setting": "[2]", "result": "128/>128"}, {"measurement": "MBC", "setting": "[2]", "result": 128, "unit": "µM"}, {"measurement": "MIC", "setting": "[2]", "result": 128, "unit": "µM"}]}
{"smiles": "O=C(O)c1cc(S(=O)(=O)Nc2ccc(CCc3ccccc3)cc2)ccc1O", "note": "[Compound 2m, 2-hydroxy-5-[N-(4-phenethylphenyl)sulfamoyl]benzoic acid]", "values": [{"measurement": "MBC, μM", "setting": "[2]", "result": "no enzymatic inhibition or bactericidal activity"}]}
